Results on 1 compound are retold here after patent publication US9084782B2, “Chemical inhibitors of cholesterol biosynthesis and venous angiogenesis” (The Regents of the University of California, priority 2011, dated 2015).

The test system of one data set is HUVECs. Nature of the data set: Wound healing assay, HUVECs. It counts as cell-based, human. As for the experimental part:
(§1) HUVECs and HUAECs were purchased from VEC Technologies. Cells were cultured on 0.1% Gelatin-coated dishes in Medium 199 (Mediatech), supplemented with 15% Fetal Bovine Serum (ATCC), 48 μg/mL Endothelial Cell Growth Supplement (BD Biosciences), 64 μg/mL Heparin Sulfate (Sigma-Aldrich), 0.9 mM Sodium Pyruvate (Mediatech), 100 IU/ml Penicillin (Mediatech), and 100 μg/ml Streptomycin (Mediatech).
(§2) For the wound healing assay, cells were cultured in 24-well plates to confluence before being subjected to a 2-hour pre-treatment with either DMSO, aplexone, Rockout (Calbiochem) or NSC 23766 (TOCRIS Bioscience). After the pre-treatment, the monolayer of endothelial cells was scratched and the closure of the wound was measured after 8 hr. The images of wounds were taken at 0 and 8 hr after scratching and the area of the wound was measured using Image J. The migration distance (the width of the wound) was calculated by dividing the area by the length of the wound. Cells below passage seven were used in this study.

In a further data set the test system is zebrafish embryos. Nature of the data set: Overall phenotype of treated zebrafish embryos (body shape, circulation). Format: in vivo. On the procedure: (§3) A,B,C, Overall phenotype of control and aplexone-treated embryos at 30 hpf. A′,B′,C′, Vasculature in trunk. […] D-E, Germ cells in control and aplexone treated embryos at 24 hpf were detected by in situ hybridization using the nanos probe. F, The percentage of embryos with ectopic primordial germ cells in control (n=26), 5 μM (n=13), and 10 μM (n=14) aplexone-treated embryos. […] I, The percentage of embryos with cardia bifida in control (n=16) and 10 μM-(n=17), 20 μM-(n=17) and 30 μM-(n=18) aplexone-treated embryos.
Aplexone treatment described in this study was carried out at a concentration of 10 μM starting at 10 hpf unless otherwise specified.

Another data set has as its system HMGCR pathway. Nature of the data set: Cholesterol assay in embryo lysate (Amplex Red). It counts as in vivo, zebrafish. On the procedure: The yolk was removed from embryos by vortexing in calcium-free Ringer's solution with 1 mM EDTA at 4° C. The embryos were then pelleted and washed with fresh calcium free Ringer's solution 5 times before being resuspended in cholesterol assay reaction buffer and were then lysed by sonication using a Sonifier 450 (Branson). Cholesterol levels in the embryo lysate were measured with an Amplex Red Cholesterol Assay Kit (Invitrogen) and Flex station II (Bucher Biotec). The total protein concentration of the embryo lysate was measured using a DC protein assay (Bio-Rad Laboratories) and SpectraMax plus (Molecular Devices).

The next data set concerns HUAECs. Nature of the data set: Wound healing assay, HUAECs. It counts as cell-based, human. On the procedure: as §1, §2
The test system of data set [1] is ephrinB2a, ephB4 and flt4. Nature of the data set: In situ hybridization for arterial and venous markers. It counts as in vivo, zebrafish. Conditions: 10 μM from 10 hpf, fixed at 24 hpf. As for the experimental part:
Untreated control embryos (A, C, E and A′, C′, E′) and embryos treated with 10 μM aplexone beginning at 10 hpf (B, D, F and B′, D′, F′) were fixed at 24 hpf. Arterial and venous fates were analyzed by in situ hybridization using ephrinB2a (A,A′,B,B′), ephB4 (C,C′,D,D′) and flt4 (E,E′,F,F′) probes. Arrowhead, dorsal aorta. Embryos were analyzed at higher magnification in the trunk in A′-F′, with regions of interest indicated by black boxes in A-F. Arrow, posterior cardinal vein.
To understand whether angiogenesis from arterial and venous ECs are under different genetic controls we screened a collection of small molecules for compounds that preferentially suppress angiogenesis from exclusively one cell type. In this screen, we used the primary ISV sprouts as the readout for arterial-derived angiogenesis, and the CVP and secondary ISV sprouts as indicators of venous-derived angiogenesis. We found one synthetic compound, aplexone, which has a lineage-dependent effect on angiogenesis. The spatial and temporal development of primary ISVs in the trunk is indistinguishable between 2-day-old control and aplexone-treated embryos (FIG. 1L-M′). […] Secondary ISVs are also absent in these embryos (FIG. 1L-M′).

Data set [2] deals with caudal vein endothelial cells. Nature of the data set: Caudal vein endothelial cell migration, time-lapse confocal imaging. Format: in vivo, zebrafish. To be noted: 10 μM aplexone. On the procedure:
A-B, Representative images of the caudal vein of control (A) and 10 μM aplexone-treated embryos (B) at 30 hpf. Images were overlaid with the endothelial cell migration path inferred from time-lapse confocal movies taken from 25 hpf to 30 hpf. The migration of caudal vein endothelial cells was traced using the Manual Tracking feature of ImageJ and the positions of ISV sprouting points were used as references to adjust for the growth of embryos. C, The distance of endothelial cell migration in caudal vein of control and aplexone-treated Tg(kdrl:GFP) embryos. Asterisk indicates p<0.05. (D) The window of application of aplexone. Grey bars represent the developmental stages during which Tg(kdrl:GFP) embryos were exposed to 10 μM aplexone and the caudal vein phenotype was analyzed at 48 hpf. […] A “−” indicates the formation of normal caudal vein plexus.
Images of GFP expression in Tg(kdrl:GFP) embryos were acquired using a Zeiss SV-11 epifluorescence microscope. Confocal images were acquired using a Carl Zeiss Laser Scanning Systems LSM510 equipped with 20× air, 20× water or 40× water immersion objectives. For single time point confocal images, embryos were anesthetized with 0.01% tricaine and embedded in 1% agarose. […] The images obtained were analyzed using the Zeiss LSM Image Brower version 4 and Image J. […]

Another data set relates to primordial germ cells. Nature of the data set: Primordial germ cell migration, in situ hybridization with nanos probe. It counts as in vivo, zebrafish. Conditions: 10 μM aplexone. On the procedure: as §3

Entries after “also recorded” stand apart in the source; their conditions may differ.

In the case of `CC(=O)C1=CCC(c2ccccc2)N(S(=O)(=O)c2ccc(C)cc2)C1` (centres unmarked) [aplexone], the “migration of HUVECs” value in the data set with HUVECs (5 μM aplexone) is reported as “sufficient to impede the migration of HUVECs”; with HUVECs (various aplexone concentrations, 8 hr after wound) it was “inhibited”. Further, the body shape entry in the data set on zebrafish embryos (10 μM aplexone) is on record as “relatively normal body shape”. The embryo length result with zebrafish embryos (30 μM aplexone) is “shorter than control embryos”. In addition, the blood circulation result with zebrafish embryos (aplexone-treated embryos) was “lack blood circulation”. For the same compound, the “efficiency of cholesterol reduction compared with atorvastatin” value with HMGCR pathway (higher concentration (40 uL)) is “more efficient”; with HMGCR pathway (lower concentration (10 uL)) it was “as efficient as atorvastatin”. Further, the embryonic cholesterol levels result with HMGCR pathway (relative to 0.4% DMSO control) is “reduced embryonic cholesterol levels to a comparable degree as treatment with atorvastatin; also recorded: reduce cholesterol level significantly”. Moreover, the HUAEC migration result in the data set with HUAECs (5 μM aplexone, 8 hr) is listed as “unaffected”. For the same compound, the “impediment in HUAEC migration” value in the data set with HUAECs (10 μM aplexone, p<0.05) is recorded as 10%. Moreover, the “arterial (ephrin B2a) and venous (flt4, ephB4) marker expression” value in data set [1] was “could not distinguish aplexone-treated embryos from control embryos”. Further, in data set [2], the “maturation of caudal vein EC filopodia into angiogenic sprouts” value is “never matured into angiogenic sprouts”. In data set [2] (between 25 hpf and 30 hpf), the “average EC migration distance during CVP formation” value stood at 35 μm. The germ cell migration result in the data set on primordial germ cells is recorded as “defect in germ cell migration”.
